Counter-ions that a name gives are not always drawn. Like-named read-outs stand apart in the source and are kept apart here.
Tests used:
JH2 domain of human Tyk2 = JH2 domain of human Tyk2 (Homo sapiens (Human), UniProt P29597); test: JH2 Biochemical Assay (TR-FRET probe displacement); format: binding
Tyk2 = Tyk2 (Homo sapiens (Human), UniProt P29597); test: pSTAT4 Cell Assay (MSD, NK92 cells); format: cell-based
[1] = JH2 domain of human Tyk2, TR-FRET probe displacement
[2] = TR-FRET probe displacement, JH2 domain
[3] = TR-FRET probe displacement, JH2 domain of human Tyk2

Tyk2, sequence (P29597 whole entry, the tested form may be a part): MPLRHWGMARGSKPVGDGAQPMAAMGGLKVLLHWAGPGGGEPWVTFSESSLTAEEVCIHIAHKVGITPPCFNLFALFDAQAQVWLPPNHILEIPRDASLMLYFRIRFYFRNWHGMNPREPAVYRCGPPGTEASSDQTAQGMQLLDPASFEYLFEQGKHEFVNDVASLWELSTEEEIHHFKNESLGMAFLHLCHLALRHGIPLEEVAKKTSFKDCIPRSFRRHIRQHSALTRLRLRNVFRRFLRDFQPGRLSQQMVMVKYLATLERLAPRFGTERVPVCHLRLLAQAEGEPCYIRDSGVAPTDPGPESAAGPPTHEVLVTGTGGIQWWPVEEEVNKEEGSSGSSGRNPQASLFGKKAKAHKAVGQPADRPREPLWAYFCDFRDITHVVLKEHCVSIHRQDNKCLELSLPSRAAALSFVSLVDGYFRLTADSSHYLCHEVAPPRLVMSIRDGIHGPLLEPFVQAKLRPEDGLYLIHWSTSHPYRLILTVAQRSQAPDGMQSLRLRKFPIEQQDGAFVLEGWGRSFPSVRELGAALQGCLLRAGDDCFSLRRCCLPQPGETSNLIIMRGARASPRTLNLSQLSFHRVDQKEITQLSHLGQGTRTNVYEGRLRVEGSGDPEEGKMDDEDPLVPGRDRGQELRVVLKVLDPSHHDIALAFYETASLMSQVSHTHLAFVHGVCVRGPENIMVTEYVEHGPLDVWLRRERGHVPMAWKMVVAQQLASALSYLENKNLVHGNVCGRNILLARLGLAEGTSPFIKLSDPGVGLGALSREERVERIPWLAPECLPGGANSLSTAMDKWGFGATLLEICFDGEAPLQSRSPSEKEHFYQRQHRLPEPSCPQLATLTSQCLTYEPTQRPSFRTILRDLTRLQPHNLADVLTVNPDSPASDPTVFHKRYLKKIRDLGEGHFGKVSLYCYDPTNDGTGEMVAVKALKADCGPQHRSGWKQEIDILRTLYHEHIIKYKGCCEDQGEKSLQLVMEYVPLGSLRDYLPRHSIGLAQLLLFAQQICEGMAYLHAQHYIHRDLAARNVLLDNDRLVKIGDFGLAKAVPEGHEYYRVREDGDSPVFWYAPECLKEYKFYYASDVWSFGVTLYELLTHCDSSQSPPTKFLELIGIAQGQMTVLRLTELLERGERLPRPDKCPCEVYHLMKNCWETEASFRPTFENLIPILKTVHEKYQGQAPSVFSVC
JH2 domain of human Tyk2, sequence (P29597 575-876): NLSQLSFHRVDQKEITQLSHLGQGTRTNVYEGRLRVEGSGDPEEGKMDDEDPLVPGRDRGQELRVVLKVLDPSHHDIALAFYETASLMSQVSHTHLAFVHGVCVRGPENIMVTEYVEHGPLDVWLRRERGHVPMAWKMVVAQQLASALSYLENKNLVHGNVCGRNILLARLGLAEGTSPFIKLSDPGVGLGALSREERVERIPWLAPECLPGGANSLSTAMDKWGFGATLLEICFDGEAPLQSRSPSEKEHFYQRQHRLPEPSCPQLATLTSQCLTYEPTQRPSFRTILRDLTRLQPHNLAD

CC(=O)Nc1cc(Nc2ccnc(C(C)(F)F)n2)c(-c2ncccc2F)cn1 [Example 698, N-(4′-((2-(1,1-difluoroethyl)pyrimidin-4-yl)amino)-3-fluorO[2,3′-bipyridin]-6′-yl)acetamide]
IC50 (JH2 domain of human Tyk2; [1]): 10 to 100 nM | IC50 (Tyk2; MSD): 100 to 1000 nM

CC(=O)Nc1cc(Nc2cc(C)nc(C(C)(F)F)n2)c(OC2CCOC2)cn1 (centres unmarked) [Example 477, N-(4-((2-(1,1-difluoroethyl)-6-methylpyrimidin-4-yl)amino)-5-((tetrahydrofuran-3-yl)oxy)pyridin-2-yl)acetamide]
IC50 (JH2 domain of human Tyk2; [1]): ≤ 10 nM | IC50 (Tyk2; MSD): 10 to 100 nM

CCOc1cnc(NC(C)=O)cc1Nc1cc(OC2CC(F)C2)nc(C(C)(F)F)n1 (centres unmarked) [Example 457, N-(4-((2-(1,1-difluoroethyl)-6-(3-fluorocyclobutoxy)pyrimidin-4-yl)amino)-5-ethoxypyridin-2-yl)acetamide trifluoroacetate]
IC50 (JH2 domain of human Tyk2; [1]): ≤ 10 nM | IC50 (Tyk2; MSD): 10 to 100 nM

COc1cccc(-c2cnc(NC(C)=O)cc2Nc2cc(C)nc(C(C)(F)F)n2)n1 [Example 635, N-(4′-((2-(1,1-difluoroethyl)-6-methylpyrimidin-4-yl)amino)-6-methoxy-[2,3′-bipyridin]-6′-yl)acetamide]
IC50 (JH2 domain of human Tyk2; [1]): ≤ 10 nM | IC50 (Tyk2; MSD): ≤ 10 nM

[2H]C([2H])([2H])N1CCn2nc(-c3cnc(NC(C)=O)cc3Nc3cc(C)nc(C(C)(F)F)n3)cc2C1 [Example 545, N-(4-((2-(1,1-difluoroethyl)-6-methylpyrimidin-4-yl)amino)-5-(5-(methyl-d3)-4,5,6,7-tetrahydropyrazolo[1,5-a]pyrazin-2-yl)pyridin-2-yl)acetamide]
IC50 (JH2 domain of human Tyk2; [1]): ≤ 10 nM | IC50 (Tyk2; MSD): ≤ 10 nM

COc1cnc(NC(C)=O)cc1Nc1cc(-c2ccc3nc(C)cn3n2)nc(C(C)(F)F)n1 [Example 399, N-(4-((2-(1,1-difluoroethyl)-6-(2-methylimidazo[1,2-b]pyridazin-6-yl)pyrimidin-4-yl)amino)-5-methoxypyridin-2-yl)acetamide]
IC50 (JH2 domain of human Tyk2; [1]): ≤ 10 nM | IC50 (Tyk2; MSD): 10 to 100 nM

COCc1cnc(-c2cnc(NC(C)=O)cc2Nc2ccnc(C(C)(F)F)n2)s1 [Example 781, N-(4-((2-(1,1-difluoroethyl)pyrimidin-4-yl)amino)-5-(5-(methoxymethyl)thiazol-2-yl)pyridin-2-yl)acetamide]
IC50 (JH2 domain of human Tyk2; [2]): ≤ 10 nM | IC50 (Tyk2): ≤ 10 nM

CC(=O)Nc1cc(Nc2ccnc(C(C)(F)F)n2)c(-c2ccc(C(C)(C)O)cn2)cn1 [Example 852, N-(4′-((2-(1,1-difluoroethyl)pyrimidin-4-yl)amino)-5-(2-hydroxypropan-2-yl)-[2,3′-bipyridin]-6′-yl)acetamide]
IC50 (JH2 domain of human Tyk2; [2]): ≤ 10 nM | IC50 (Tyk2): ≤ 10 nM

CO[C@H]1CC[C@@H](Oc2cnc(NC(C)=O)cc2Nc2cc(C)nc(C(C)(F)F)n2)C1 [Example 513, N-(4-((2-(1,1-difluoroethyl)-6-methylpyrimidin-4-yl)amino)-5-(((1R,3S)-3-methoxycyclopentyl)oxy)pyridin-2-yl)acetamide]
IC50 (JH2 domain of human Tyk2; [1]): ≤ 10 nM | IC50 (Tyk2; MSD): 10 to 100 nM

COc1cncc(Nc2cc(NC(C)=O)ncc2-c2ccc(F)cn2)n1 [Example 586, N-(5-fluorO4′-((6-methoxypyrazin-2-yl)amino)-[2,3′-bipyridin]-6′-yl)acetamide]
IC50 (JH2 domain of human Tyk2; [1]): ≤ 10 nM | IC50 (Tyk2; MSD): 10 to 100 nM

CC(=O)Nc1cc(Nc2cc(C)nc(C(C)(F)F)n2)c(-c2ncc(F)c(C)n2)cn1 [Example 673, N-(4-((2-(1,1-difluoroethyl)-6-methylpyrimidin-4-yl)amino)-5-(5-fluorO4-methylpyrimidin-2-yl)pyridin-2-yl)acetamide]
IC50 (JH2 domain of human Tyk2; [1]): 10 to 100 nM | IC50 (Tyk2; MSD): 10 to 100 nM

CC(=O)Nc1cc(Nc2cccc(C(C)(F)F)n2)c(OCCN2CCCC2)cn1 [Example 64, N-(4-((6-(1,1-difluoroethyl)pyridin-2-yl)amino)-5-(2-(pyrrolidin-1-yl)ethoxy)pyridin-2-yl)acetamide]
IC50 (JH2 domain of human Tyk2; [3]): ≤ 10 nM | IC50 (Tyk2; MSD): 10 to 100 nM

CC(=O)Nc1cc(Nc2cc(C)nc(C(C)(F)F)n2)c(-c2ccn3nccc3n2)cn1 [Example 540, N-(4-((2-(1,1-difluoroethyl)-6-methylpyrimidin-4-yl)amino)-5-(pyrazolo[1,5-a]pyrimidin-5-yl)pyridin-2-yl)acetamide]
IC50 (JH2 domain of human Tyk2; [1]): ≤ 10 nM | IC50 (Tyk2; MSD): ≤ 10 nM

COc1nc(-c2cnc(NC(C)=O)cc2Nc2cc(C)nc(C(C)(F)F)n2)ncc1C [Example 663, N-(4-((2-(1,1-difluoroethyl)-6-methylpyrimidin-4-yl)amino)-5-(4-methoxy-5-methylpyrimidin-2-yl)pyridin-2-yl)acetamide]
IC50 (JH2 domain of human Tyk2; [1]): 10 to 100 nM | IC50 (Tyk2; MSD): ≥ 1000 nM

COc1nc(C)cc(-c2cnc(NC(C)=O)cc2Nc2ccnc(C(C)(F)F)n2)n1 [Example 164, N-(4-((2-(1,1-difluoroethyl)pyrimidin-4-yl)amino)-5-(2-methoxy-6-methylpyrimidin-4-yl)pyridin-2-yl)acetamide]
IC50 (JH2 domain of human Tyk2; [3]): ≤ 10 nM | IC50 (Tyk2; MSD): 10 to 100 nM

CC(=O)Nc1cc(Nc2cc(C(C)C)nc(C(C)(F)F)n2)c(O[C@H]2C[C@H](F)C2)cn1 [Example 410, N-(4-((2-(1,1-difluoroethyl)-6-isopropylpyrimidin-4-yl)amino)-5-((1r,3r)-3-fluorocyclobutoxy)pyridin-2-yl)acetamide]
IC50 (JH2 domain of human Tyk2; [1]): ≤ 10 nM | IC50 (Tyk2; MSD): ≤ 10 nM

CCc1cc(Nc2cc(NC(C)=O)ncc2-c2ccc(N3CCOCC3)nn2)nc(C(C)(F)F)n1 [Example 863, N-(4-((2-(1,1-difluoroethyl)-6-ethylpyrimidin-4-yl)amino)-5-(6-morpholinopyridazin-3-yl)pyridin-2-yl)acetamide]
IC50 (JH2 domain of human Tyk2; [2]): ≤ 10 nM | IC50 (Tyk2): ≤ 10 nM

CC(=O)Nc1cc(Nc2ccnc(C(C)(F)F)n2)c(-c2ccc(CN3CC4(CCOC4)C3)cn2)cn1 [Example 889, N-(5-((6-oxa-2-azaspiro[3.4]octan-2-yl)methyl)-4′-((2-(1,1-difluoroethyl)pyrimidin-4-yl)amino)-[2,3′-bipyridin]-6′-yl)acetamide]
IC50 (JH2 domain of human Tyk2; [2]): ≤ 10 nM | IC50 (Tyk2): ≤ 10 nM

CC(=O)Nc1cc(Nc2cc(C)nc(C(C)(F)F)n2)c(-c2csc(N(C)C)n2)cn1 [Example 271, N-(4-((2-(1,1-difluoroethyl)-6-methylpyrimidin-4-yl)amino)-5-(2-(dimethylamino)thiazol-4-yl)pyridin-2-yl)acetamide]
IC50 (JH2 domain of human Tyk2; [3]): ≤ 10 nM | IC50 (Tyk2; MSD): ≤ 10 nM

CC(=O)Nc1cc(Nc2cc(C)nc(C(C)(F)F)n2)c(-c2cc(C#N)cnn2)cn1 [Example 286, N-(5-(5-cyanopyridazin-3-yl)-4-((2-(1,1-difluoroethyl)-6-methylpyrimidin-4-yl)amino)pyridin-2-yl)acetamide]
IC50 (JH2 domain of human Tyk2; [3]): ≤ 10 nM | IC50 (Tyk2; MSD): 100 to 1000 nM

CC(=O)Nc1cc(Nc2cc(C)nc(C(C)(F)F)n2)c(-c2cc3n(n2)CCCN3C)cn1 [Example 240, N-(4-((2-(1,1-difluoroethyl)-6-methylpyrimidin-4-yl)amino)-5-(4-methyl-4,5,6,7-tetrahydropyrazolo[1,5-a]pyrimidin-2-yl)pyridin-2-yl)acetamide]
IC50 (JH2 domain of human Tyk2; [3]): ≤ 10 nM | IC50 (Tyk2; MSD): ≤ 10 nM

CC(=O)Nc1cc(Nc2ccnc(C(C)(F)F)n2)c(-c2cnc(N3CCC4(COC4)C3)cn2)cn1 [Example 869, N-(5-(5-(2-oxa-6-azaspiro[3.4]octan-6-yl)pyrazin-2-yl)-4-((2-(1,1-difluoroethyl)pyrimidin-4-yl)amino)pyridin-2-yl)acetamide]
IC50 (JH2 domain of human Tyk2; [2]): 10 to 100 nM | IC50 (Tyk2): 100 to 1000 nM

CC(=O)Nc1cc(Nc2cc(C)nc(C(C)(F)F)n2)c(Oc2cncc(C)n2)cn1 [Example 98, N-(4-((2-(1,1-difluoroethyl)-6-methylpyrimidin-4-yl)amino)-5-((6-methylpyrazin-2-yl)oxy)pyridin-2-yl)acetamide]
IC50 (JH2 domain of human Tyk2; [3]): ≥ 1000 nM | IC50 (Tyk2; MSD): ≥ 1000 nM

CC(=O)Nc1cc(Nc2cc(C)nc(C(C)(F)F)n2)c(-c2csc(N3CCN(C)CC3)n2)cn1 [Example 771, N-(4-((2-(1,1-difluoroethyl)-6-methylpyrimidin-4-yl)amino)-5-(2-(4-methylpiperazin-1-yl)thiazol-4-yl)pyridin-2-yl)acetamide]
IC50 (JH2 domain of human Tyk2; [2]): ≤ 10 nM | IC50 (Tyk2): ≤ 10 nM

CCc1cc(Nc2cc(NC(=O)NC)ncc2-c2cnccn2)nc(C(C)(F)F)n1 [Example 919, 1-(4-((2-(1,1-difluoroethyl)-6-ethylpyrimidin-4-yl)amino)-5-(pyrazin-2-yl)pyridin-2-yl)-3-methylurea]
IC50 (JH2 domain of human Tyk2; [2]): ≤ 10 nM | IC50 (Tyk2): 10 to 100 nM

CC(=O)Nc1cc(Nc2ccnc(C(C)(F)F)n2)c(-c2cc(C)c(C#N)cn2)cn1 [Example 701, N-(5-cyanO4′-((2-(1,1-difluoroethyl)pyrimidin-4-yl)amino)-4-methyl-[2,3′-bipyridin]-6′-yl)acetamide]
IC50 (JH2 domain of human Tyk2; [1]): ≤ 10 nM | IC50 (Tyk2; MSD): ≤ 10 nM

CC(=O)Nc1cc(Nc2cc(-c3cnn(C(C)C)c3)nc(C(C)(F)F)n2)c(F)cn1 [Example 819, N-(4-((2-(1,1-difluoroethyl)-6-(1-isopropyl-1H-pyrazol-4-yl)pyrimidin-4-yl)amino)-5-fluoropyridin-2-yl)acetamide]
IC50 (JH2 domain of human Tyk2; [2]): 10 to 100 nM | IC50 (Tyk2): ≥ 1000 nM

COc1nccc(-c2cnc(NC(C)=O)cc2Nc2cc(C)nc(C(C)(C)F)n2)n1 [Example 181, N-(4-((2-(2-fluoropropan-2-yl)-6-methylpyrimidin-4-yl)amino)-5-(2-methoxypyrimidin-4-yl)pyridin-2-yl)acetamide]
IC50 (JH2 domain of human Tyk2; [3]): ≤ 10 nM | IC50 (Tyk2; MSD): ≤ 10 nM

CC(=O)Nc1cc(Nc2cc(C)nc(C(C)(F)F)n2)c(-c2cn(C)c(C#N)n2)cn1 [Example 601, N-(5-(2-cyanO1-methyl-1H-imidazol-4-yl)-4-((2-(1,1-difluoroethyl)-6-methylpyrimidin-4-yl)amino)pyridin-2-yl)acetamide]
IC50 (JH2 domain of human Tyk2; [1]): ≤ 10 nM | IC50 (Tyk2; MSD): ≤ 10 nM

COCCn1ccc(-c2cnc(NC(C)=O)cc2Nc2cc(C)nc(C(C)(F)F)n2)n1 [Example 257, N-(4-((2-(1,1-difluoroethyl)-6-methylpyrimidin-4-yl)amino)-5-(1-(2-methoxyethyl)-1H-pyrazol-3-yl)pyridin-2-yl)acetamide]
IC50 (JH2 domain of human Tyk2; [3]): ≤ 10 nM | IC50 (Tyk2; MSD): ≤ 10 nM

CC(=O)Nc1cc(Nc2cc(C)nc(C(C)(F)F)n2)c(-c2cnc(C#N)cn2)cn1 [Example 838, N-(5-(5-cyanopyrazin-2-yl)-4-((2-(1,1-difluoroethyl)-6-methylpyrimidin-4-yl)amino)pyridin-2-yl)acetamide]
IC50 (JH2 domain of human Tyk2; [2]): ≤ 10 nM | IC50 (Tyk2): 10 to 100 nM

— patent US20260028365A1 (BIOGEN MA INC., priority 2022, published 2026)
